Experimental data: patent US12391683B2, “Therapeutic compounds and methods” (Actio Biosciences, Inc., priority 2022, dated 2025)
Several values for one entry are separate records, joined by “and”; a condition that tells them apart may be missing. Equal entries are not always repeated.

What was measured:
TRPM5 channels = target: T1, TRPM5 channels (Homo sapiens, UniProt Q9NZQ8); assay: TRP Family FLIPR Assay, TRPM5; assay type: cell-based; settings: CHO cells
T1 construct: expressed in transfected cells; host or cells: CHO
T1 sequence (Q9NZQ8 1-1165): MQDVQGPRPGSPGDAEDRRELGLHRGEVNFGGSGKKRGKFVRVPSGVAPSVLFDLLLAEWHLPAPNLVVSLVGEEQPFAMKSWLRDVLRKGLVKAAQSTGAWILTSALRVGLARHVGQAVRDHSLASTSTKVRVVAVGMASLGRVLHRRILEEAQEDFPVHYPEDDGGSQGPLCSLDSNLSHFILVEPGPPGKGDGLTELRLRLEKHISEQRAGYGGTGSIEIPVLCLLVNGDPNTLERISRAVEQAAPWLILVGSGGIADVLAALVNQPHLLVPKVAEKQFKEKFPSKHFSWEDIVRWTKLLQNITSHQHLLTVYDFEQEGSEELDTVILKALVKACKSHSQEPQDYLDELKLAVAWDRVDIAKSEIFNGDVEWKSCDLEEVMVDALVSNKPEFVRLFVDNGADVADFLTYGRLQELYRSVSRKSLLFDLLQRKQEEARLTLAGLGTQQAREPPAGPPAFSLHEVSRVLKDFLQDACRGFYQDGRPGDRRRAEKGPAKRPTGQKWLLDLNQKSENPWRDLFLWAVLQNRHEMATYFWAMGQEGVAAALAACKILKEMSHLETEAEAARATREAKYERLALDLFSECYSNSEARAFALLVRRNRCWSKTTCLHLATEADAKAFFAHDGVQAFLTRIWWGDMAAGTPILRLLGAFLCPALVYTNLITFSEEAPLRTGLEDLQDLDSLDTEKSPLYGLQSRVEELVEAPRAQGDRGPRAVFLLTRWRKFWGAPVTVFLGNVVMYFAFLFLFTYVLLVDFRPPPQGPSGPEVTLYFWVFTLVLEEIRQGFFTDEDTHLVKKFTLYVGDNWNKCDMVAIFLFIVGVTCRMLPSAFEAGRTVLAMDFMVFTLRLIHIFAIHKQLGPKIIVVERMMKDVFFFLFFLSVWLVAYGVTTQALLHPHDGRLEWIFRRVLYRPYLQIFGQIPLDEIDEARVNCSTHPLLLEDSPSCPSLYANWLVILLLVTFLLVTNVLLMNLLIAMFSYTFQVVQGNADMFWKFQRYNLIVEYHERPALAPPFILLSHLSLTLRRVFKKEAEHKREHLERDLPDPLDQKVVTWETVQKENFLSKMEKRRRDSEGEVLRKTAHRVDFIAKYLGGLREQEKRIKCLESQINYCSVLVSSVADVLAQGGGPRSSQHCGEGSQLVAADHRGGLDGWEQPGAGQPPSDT
Procedure: The compound of Example 5 was tested for selectivity against a panel of Human TRP family ion channels in a TRP Family FLIPR Assay as described below. • 1. TRPC3 channels (human TRPC3 variant 1 gene, expressed in HEK293 cells). • 2. TRPC4 channels (human TRPC4 gene, expressed in HEK293 cells). • 3. TRPC5 channels (human TRPC5 gene, expressed in HEK293 cells). • 4. TRPC6 channels (human TRPC6 gene, expressed in HEK293 cells). • 5. TRPM2 channels (human TRPM2 gene, transiently expressed in HEK293 cells). • 6. TRPM3 channels (human TRPM3 gene, transiently expressed in HEK293 cells). • 7. TRPM4 channels (human TRPM4 gene, expressed in CHO cells). • 8. […]
Data acquisition was performed via the FLIPR Control software supplied with the FLIPR System (MDS-AT) and data was analyzed using Microsoft Excel (Microsoft Corp., Redmond, WA) or GraphPad Prism. […]
[formula] where Base is the response at low concentrations of test article, Max is the maximum response at high concentrations, xhalf the EC50, or IC50, the concentration of test article producing either half-maximal activation or inhibition, and rate is the Hill coefficient. […] No assumptions about the fit parameters was made; the fit parameters were determined by the algorithm.
The effect of each test article was evaluated at eight (8) concentrations: 0.003, 0.01, 0.03, 0.1, 0.3, 1, 3 and 10 μM, n≤4 wells/concentration). […]

Hepatocytes = Hepatocytes predicted clearance, cyno
[1] = target: recombinant human CYP3A4 enzyme (Homo sapiens, UniProt P08684); assay: CYP3A4 incubation assay; assay type: in vitro ADME
Procedure: Example 24. CYP3A4 Incubation Assay
Compounds (final concentration […]) were incubated in 100 mM phosphate buffer containing 100 pmol/mL recombinant human CYP3A4 enzyme for 0, 5, 10, 15 and 25 minutes.
Testosterone was used as positive control. Reaction was initiated by the addition of NADPH (final concentration […]) and carried out at 37° C. The reaction was stopped by the addition of 4 volumes of cold acetonitrile (with 100 nM alprazolam, 200 nM labetalol, 200 nM imipramine and 2 μM ketoprofen as internal standards). Samples were centrifuged at 3,220 g for 40 minutes to precipitate protein. 70 μL supernatant was transferred to the analysis plate containing 110 μL of acetonitrile for LC-MS/MS analysis.
The following table indicates the percentage remaining for the indicated examples after incubation with recombinant Human CYP3A4 after 25 minutes under the same conditions as described for Example […].

Chain of recombinant human CYP3A4 enzyme (P08684 whole entry): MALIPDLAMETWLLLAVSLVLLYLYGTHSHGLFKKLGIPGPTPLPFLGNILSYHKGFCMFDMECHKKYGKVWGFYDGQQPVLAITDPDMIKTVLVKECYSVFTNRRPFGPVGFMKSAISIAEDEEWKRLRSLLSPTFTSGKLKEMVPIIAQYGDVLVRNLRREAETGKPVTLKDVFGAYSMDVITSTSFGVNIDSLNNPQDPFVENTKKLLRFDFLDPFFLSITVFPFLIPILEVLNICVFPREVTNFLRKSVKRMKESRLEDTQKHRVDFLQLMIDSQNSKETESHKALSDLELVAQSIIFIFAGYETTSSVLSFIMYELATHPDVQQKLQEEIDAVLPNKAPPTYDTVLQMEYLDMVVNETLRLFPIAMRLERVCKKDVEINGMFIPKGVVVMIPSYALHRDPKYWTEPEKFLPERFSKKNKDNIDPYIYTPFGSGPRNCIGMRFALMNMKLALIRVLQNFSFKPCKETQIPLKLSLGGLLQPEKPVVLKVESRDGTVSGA

CC(C)(O)c1cnc(N2C[C@@]3(CC[C@@H](F)[C@](C)(Cn4cnc5ccc(C#N)cc54)C3)OC2=O)cn1 (single isomer, unassigned) [Example 5]
EC50 (TRPM5 channels; agonist mode, vs EMAX of Mg-ATP 33.3 μM, read-out: EC50 hTRPM5): > 10 µM | IC50 (TRPM5 channels; antagonist mode, activated with Mg-ATP 75 μM, 0.003-10 μM, read-out: IC50 hTRPM5): > 10 µM | Hepatocytes predicted clearance in cyno (Hepatocytes): 1 mL/min/kg | CYP3A4 Clint ([1]; 100 pmol/mL recombinant human CYP3A4, 37° C., 0-25 min): 0.09 μL/min/pmol CYP450 and < 0.07 μL/min/pmol CYP450 | Metabolic Stability in Recombinant Human CYP3A4 + NADPH (% remaining after 25 min) ([1]; recombinant Human CYP3A4 + NADPH, 25 min): 100%
